Measured values as given in patent US20240307310A1, “STABILIZED SOLID ORAL PHARMACEUTICAL COMPOSITION OF VARENICLINE” (LUPIN LIMITED, priority 2021, published 2024).

Experiments:
[1] = Analysis of nitrosamine impurities (VC09, NDEA) in drug substance, blends and tablets; assay type: physicochemical; conditions: Table 2
[2] = Regulatory acceptable intake (AI) limits for nitrosamine impurities; set-up: species or system human; conditions: determined in view of the EMA limit
Description: FDA recommends the following acceptable intake (Al) limits fir the nitrosamine impurities a s given in the below table:
The conversion of Al limit into ppm varies by product and is calculated based on a drug's maximum daily dose (MDD) as reflected in the drug label (ppm=Al (ng)/MDD(mg)).
These limits are applicable only if a drug product contains a single nitrosamine.
Apart from NDMA there is another nitrosamine impurity, N-nitroso-varenicline which is usually found in APIs as well as finished product of varenicline. As per the recent update, USFDA has provided acceptable intake limit of N-nitroso-varenicline (VC09) from 37 ng/day to 185 ng/day, in finished product of varenicline.
Additionally, European Medicines Agency (EMA) has also provided the daily acceptable intake limit for N-nitroso-varenicline impurity as 18 ng/day. In view of the above limit minimum daily intake limit for VC09 was determined as 9 ppm.

[3] = cited from earlier work; for AI Limit: FDA recommended acceptable intake limit in drug products

| Compound | AI Limit [3] [ng/day] | also measured |
| --- | --- | --- |
| Varenicline Tartrate [Drug Substance] | – | Nitrosamines Results in ppm, VC09 ([1]; 40/75, 7 days, open): 0.20 ppm; Nitrosamines Results in ppm, VC09 ([1]; 60° C, 7 days, open): 0.27 ppm; Nitrosamines Results in ppm, VC09 ([1]; Initial (Chantix tablets: condition not given)): 0.23 ppm |
| O=NN1CC2CC(C1)c1cc3nccnc3cc12 [N-nitroso-varenicline] | – | minimum daily intake limit [2]: 9 ppm; daily acceptable intake limit ([3]; European Medicines Agency (EMA)): 18 ng/day |
| CCN(N=O)C(C)C [NIPEA, N-nitrosoisopropylethyl amine] | 26.5 | – |
| CN(CCCC(=O)O)N=O [NMBA, N-nitroso-N-methyl-4-aminobutanoic acid] | 96 | – |
| CC(C)N(N=O)C(C)C [NDIPA, N-nitrosodiisopropylamine] | 26.5 | – |
| CCN(CC)N=O [NDEA, N-nitrosodiethylamine] | 26.5 | – |
| CN(C)N=O [NDMA, N-nitrosodimethylamine] | 96 | – |
